As usually defined, the EC50 is the concentration needed to bring the measured effect to its halfway point. A lower EC50 goes with a more potent agent. A word on the inhibition: it is the share of the control response that was lost under treatment.

A value given as a limit tells only on which side of the number the result lay.

Holding throughout (assay type): cell-based
One experiment relates to SW480 colon cancer cells. Description: Cell viability assay (CellTiter-Blue). Conditions: Homo sapiens; for EC50: 96 h, SW480 cell viability, four days, CellTiter-Blue; for inhibition at 10 µM: given where EC50 >10 μM, SW480 viability, read-out: percent inhibition at 10 μM. The procedure: Representative compounds were screened using the following assay procedure to assess the effect on cell viability as described below.
Each compound was dissolved in DMSO as a 10 mM stock and used to prepare compound source plates. Serial dilution (1:3, 8-point dose-response curves from 10 μM to 0.0045 μM) and compound transfer was performed using the ECHO 550 (Labcyte, Sunnyvale, Calif.) into 96-well clear bottom, black-walled plates (Corning-Costar).
Approximately 2×10^3 SW480 colon cancer cells were seeded into each well and allowed to incubate in the presence or absence of compound for four days at 37° C./5% CO2. Eight replicates of DMSO-treated cells served as controls and cells treated with compound were performed in duplicate.
After incubation, 20 μL of CellTiter-Blue (Promega) was added to each well allowed to incubate for approximately 3 hours. This reagent was a buffered solution which contains resazurin, metabolically active cells were able to reduce rezarurin (blue) into resorufin (pink) which was highly fluorescent. This measured fluorescence was used as a readout for cell viability.
After incubation, the plates were read at Ex 560 nm Em 590 nm (Cytation 3, BioTek). Dose-response curves were generated and EC50 concentration values were calculated using non-linear regression curve fit in the GraphPad Prism (San Diego, Calif.) or Dotmatics' Studies Software (Bishops Stortford, UK). For EC50 of >10 μM, the percent inhibition at 10 μM is provided.

For experiment [1], the system named is primary human fibroblasts derived from IPF patients (LL29 cells). Description: Inhibition of the fibrotic process: αSMA staining in TGF-β1 treated fibroblasts. Conditions: Fibroblast; for EC50: 96 h, LL29 cells, TGF-β1 20 ng/mL, 4 days, % αSMA positive cells; for inhibition at 10 µM: given where EC50 >10 μM, LL29, αSMA, read-out: percent inhibition at 10 μM. The source says: Representative compounds were screened using primary human fibroblasts (derived from IPF patients) treated with TGF-β1 to determine their ability to inhibit the fibrotic process.
Human Fibroblast Cell Culture: Primary human fibroblasts derived from IPF patients (LL29 cells) [^1Xiaoqiu Liu, et. al., “Fibrotic Lung Fibroblasts Show Blunted Inhibition by cAMP Due to Deficient cAMP Response Element-Binding Protein Phosphorylation”, Journal of Pharmacology and Experimental Therapeutics (2005), 315(2), 678-687; ^2Watts, K. L., et. al., “RhoA signaling modulates cyclin D1 expression in human lung fibroblasts; implications for idiopathic pulmonary fibrosis”, Respiratory Research (2006), 7(1), 88] were obtained from American Type Culture Collection (ATCC) and expanded in F12 medium supplemented with 15% Fetal Bovine Serum and Penicillin/Streptomycin.
Compound Screening: Each compound was dissolved in DMSO as a 10 mM stock and used to prepare compound source plates. Serial dilution (1:2, 11-point dose-response curves from 10 μM to […]) and compound transfer was performed using the ECHO 550 (Labcyte, Sunnyvale, Calif.) into 384-well clear bottom assay plates (Greiner Bio-One) with appropriate DMSO backfill for a final DMSO concentration of 0.1%. LL29 cells are plated at 1,500 cells/well in 80 μL/well F12 medium supplemented with 1% Fetal Bovine Serum. One hour after addition of the cells, TGF-β1 (Peprotech; 20 ng/mL) was added to the plates to induce fibrosis (ref. 1 and 2 above). Wells treated with TGF-β1 and containing DMSO were used as controls. Cells were incubated at 37° C. and 5% CO2 for 4 days. Following incubation for 4 days, SYTOX green nucleic acid stain (Life Technologies [Thermo Fisher Scientific]) was added to the wells at a final concentration of 1 μM and incubated at room temperature for 30 min. Cells were then fixed using 4% formaldehyde (Electron Microscopy Sciences), washed 3 times with PBS followed by blocking and permeabilization using 3% Bovine Serum Albumin (BSA; Sigma) and 0.3% Triton X-100 (Sigma) in PBS. Cells were then stained with antibody specific to α-smooth muscle actin (αSMA; Abcam) (ref. 1 and 2 above) in 3% Bovine Serum Albumin (BSA; Sigma) and 0.3% Triton X-100 (Sigma) in PBS, and incubated overnight at 4° C. Cells were then washed 3 times with PBS, followed by incubation with Alexa Flor-647 conjugated secondary antibody (Life Technologies [Thermo Fisher Scientific]) and DAPI at room temperature for 1 hour. Cells were then washed 3 times with PBS and plates were sealed for imaging. αSMA staining was imaged by excitation at 630 nm and emission at 665 nm and quantified using the Compartmental Analysis program on the CellInsight CX5 (Thermo Scientific). Dead or apoptotic cells were excluded from analysis based on positive SYTOX green staining. % of total cells positive for αSMA were counted in each well and normalized to the average of 11 wells treated with TGF-β1 on the same plate using Dotmatics' Studies Software. The normalized averages (fold change over untreated) of 3 replicate wells for each compound concentration were used to create dose-responses curves and EC50 values were calculated using non-linear regression curve fit in the Dotmatics' Studies Software. For EC50 of >10 μM, the percent inhibition at 10 μM is provided.

In a further experiment the test system is IL-6 (THP-1 cells). Description: IL-6 inhibition in LPS-stimulated THP-1 cells (HTRF). The following applies: Homo sapiens; for EC50: THP-1 cells, LPS 500 ng/mL, 22 hours, IL6 HTRF; for inhibition at 10 µM: given where EC50 >10 μM, THP-1, IL6, read-out: percent inhibition at 10 μM. The procedure: Human Monocyte Cell Culture: Human monocyte cell line (THP-1 cells; Catalog # TIB-202, ATCC, Manassas, Va.) were cultured in Roswell Park Memorial Institute (RPMI) 1640 Medium (Catalog #21870-100, Buffalo, N.Y.) with 1% L-glutamine, 1% HEPES, 1% Sodium Pyruvate, 2% Sodium Bicarbonate supplemented with 100 units/mL penicillin, 50 μg/mL streptomycin, 2-mercaptoethanol (0.05 mM) [basal medium] and 10% fetal bovine serum (Catalog #16140089, Life Technologies, Carlsbad, Calif.) at 37° C. and 5% CO2.
Compound Screening: THP-1 cells were cultured in basal media with 1% FBS for 24 hours before the start of the assay. Each compound was dissolved in DMSO as a 10 mM stock and used to prepare compound source plates. Serial dilution (1:3, 10-point dose-response curves starting from 10 μM) and compound transfer was performed using the ECHO 550 (Labcyte, Sunnyvale, Calif.) into 384-well white low volume assay plates (Greiner Bio-One) with appropriate DMSO backfill for a final DMSO concentration of 0.1%. THP-1 cells were plated at 5000 cells/well in the 384-well plates and incubated at 37° C. for 2 h. 500 ng/mL of LPS was added after 2 hours and cells were incubated for another 22 hours at 37° C. Plates were spun in a centrifuge for 1 minute at […] and a mixture of anti-IL6 XL665, and anti-IL6 Cryptate diluted in reconstitution buffer (Cisbio Inc.) was added to each well. Following incubation for 3 hrs at room temperature, Homogeneous Time-Resolved Fluorescence (HTRF) was measured using the Envision (Perkin Elmer) at 665 nm and […]. The ratio of fluorescence at 665 nm to 620 nm was used as a readout for IL6 quantification. All samples were processed in duplicate. Readings were normalized to DMSO treated cells and normalized activities were utilized for EC50 calculations using the dose-response log (inhibitor) vs. response —variable slope (four parameters) nonlinear regression feature available in GraphPad Prism 5.0 (or Dotmatics). For EC50 of >10 μM, the percent inhibition at 10 μM is provided.

Regarding `Fc1ccccc1-c1ccnc2[nH]c(-c3n[nH]c4ccc(-c5cncc(CNCc6ccccc6)c5)nc34)cc12` [Compound 80, N-Benzyl-1-(5-(3-(4-(2-fluorophenyl)-1H-pyrrolo[2,3-b]pyridin-2-yl)-1H-pyrazolo[4,3-b]pyridin-5-yl)pyridin-3-yl)methanamine], the concentration giving a half-maximal response (EC50) in the experiment with SW480 colon cancer cells is 2.06 µM; in experiment [1], 1.19 µM; with IL-6 (THP-1 cells), more than 10 µM. Also, the inhibition at 10 µM with IL-6 (THP-1 cells) is 18.2%.

As for `Fc1ccccc1-c1ccnc2[nH]c(-c3n[nH]c4ccc(-c5ccccn5)nc34)cc12` [Compound 84, 3-(4-(2-Fluorophenyl)-1H-pyrrolo[2,3-b]pyridin-2-yl)-5-(pyridin-2-yl)-1H-pyrazolo[4,3-b]pyridine], the EC50 with SW480 colon cancer cells was more than 10 µM; in experiment [1] it was more than 10 µM; in the experiment on IL-6 (THP-1 cells) it was 0.006 µM. In addition, the inhibition at 10 µM in the experiment with SW480 colon cancer cells amounted to 16.5%; in experiment [1], 0%.

Take `c1cncc(-c2ccc3[nH]nc(-c4cc5c(-c6cccnc6)ccnc5[nH]4)c3n2)c1` [Compound 88, 5-(Pyridin-3-yl)-3-(4-(pyridin-3-yl)-1H-pyrrolo[2,3-b]pyridin-2-yl)-1H-pyrazolo[4,3-b]pyridine]: the EC50 (in the experiment with SW480 colon cancer cells; in experiment [1]; in the experiment on IL-6 (THP-1 cells)) was more than 10 µM in each case. The inhibition at 10 µM with SW480 colon cancer cells is 31.2%; in experiment [1], 25.3%; in the experiment on IL-6 (THP-1 cells), 38.7%.

Regarding `CN(C)c1cncc(-c2ccc3[nH]nc(-c4cc5c(-c6cccnc6)ccnc5[nH]4)c3n2)c1` [Compound 91, N,N-Dimethyl-5-(3-(4-(pyridin-3-yl)-1H-pyrrolo[2,3-b]pyridin-2-yl)-1H-pyrazolo[4,3-b]pyridin-5-yl)pyridin-3-amine], the EC50 in the experiment with SW480 colon cancer cells is more than 10 µM; in experiment [1], 2.19 µM; with IL-6 (THP-1 cells) it was more than 10 µM. The inhibition at 10 µM was found to be 3.5% in the experiment with SW480 colon cancer cells and 36.3% in the experiment on IL-6 (THP-1 cells).

Turning to `CC(C)Nc1cncc(-c2ccc3[nH]nc(-c4cc5c(-c6cccnc6)ccnc5[nH]4)c3n2)c1` [Compound 96, N-Isopropyl-5-(3-(4-(pyridin-3-yl)-1H-pyrrolo[2,3-b]pyridin-2-yl)-1H-pyrazolo[4,3-b]pyridin-5-yl)pyridin-3-amine], the EC50 in the experiment with SW480 colon cancer cells was more than 10 µM; in experiment [1], more than 10 µM; with IL-6 (THP-1 cells), 0.008 µM. Moreover, the inhibition at 10 µM (in the experiment on SW480 colon cancer cells; in experiment [1]) was 0% in each case.

Regarding `c1cncc(-c2ccnc3[nH]c(-c4n[nH]c5ccc(-c6ccncc6)nc45)cc23)c1` [Compound 102, 3-(4-(Pyridin-3-yl)-1H-pyrrolo[2,3-b]pyridin-2-yl)-5-(pyridin-4-yl)-1H-pyrazolo[4,3-b]pyridine], the EC50 (with SW480 colon cancer cells; in experiment [1]; in the experiment with IL-6 (THP-1 cells)) was more than 10 µM each time. For the same molecule, the inhibition at 10 µM with SW480 colon cancer cells amounted to 10%; in experiment [1], 0%; with IL-6 (THP-1 cells) it was 23.9%.

`FC1(F)CCN(Cc2cncc(-c3ccc4[nH]nc(-c5cc6c(-c7cccnc7)ccnc6[nH]5)c4n3)c2)C1` [Compound 110, 5-(5-((3,3-Difluoropyrrolidin-1-yl)methyl)pyridin-3-yl)-3-(4-(pyridin-3-yl)-1H-pyrrolo[2,3-b]pyridin-2-yl)-1H-pyrazolo[4,3-b]pyridine]: the values for the EC50 (in the experiment with SW480 colon cancer cells; in experiment [1]; in the experiment with IL-6 (THP-1 cells)) were more than 10 µM, 0.213 µM and 4.93 µM, respectively. Also, the inhibition at 10 µM in the experiment on SW480 colon cancer cells worked out at 12.3%.

With `Nc1cncc(-c2ccc3[nH]nc(-c4cc5c(-c6ccncc6)ccnc5[nH]4)c3n2)c1` [Compound 115, 5-(3-(4-(Pyridin-4-yl)-1H-pyrrolo[2,3-b]pyridin-2-yl)-1H-pyrazolo[4,3-b]pyridin-5-yl)pyridin-3-amine], the EC50 (in the experiment with SW480 colon cancer cells; in experiment [1]; in the experiment with IL-6 (THP-1 cells)) was more than 10 µM throughout. The inhibition at 10 µM was found to be 17.5% with SW480 colon cancer cells, 28.8% in experiment [1] and 22.2% in the experiment on IL-6 (THP-1 cells).

For the molecule `Cc1ccncc1-c1ccc2[nH]nc(-c3cc4c(-c5ccncc5)ccnc4[nH]3)c2n1` [Compound 117, 5-(4-Methylpyridin-3-yl)-3-(4-(pyridin-4-yl)-1H-pyrrolo[2,3-b]pyridin-2-yl)-1H-pyrazolo[4,3-b]pyridine], the EC50 is more than 10 µM in the experiment with SW480 colon cancer cells, 0.6 µM in experiment [1] and more than 10 µM in the experiment with IL-6 (THP-1 cells). For the same molecule, the inhibition at 10 µM is 3.4% in the experiment on SW480 colon cancer cells and 45.3% with IL-6 (THP-1 cells).

Take `c1cc(-c2ccnc3[nH]c(-c4n[nH]c5ccc(-c6cncc(CN7CCCCC7)c6)nc45)cc23)ccn1` [Compound 127, 5-(5-(Piperidin-1-ylmethyl)pyridin-3-yl)-3-(4-(pyridin-4-yl)-1H-pyrrolo[2,3-b]pyridin-2-yl)-1H-pyrazolo[4,3-b]pyridine]: the EC50 (in the experiment with SW480 colon cancer cells; in experiment [1]; in the experiment with IL-6 (THP-1 cells)) was more than 10 µM each time. Further, the inhibition at 10 µM in the experiment on SW480 colon cancer cells is 14.5%; in experiment [1], 0%; in the experiment with IL-6 (THP-1 cells), 30.2%.

These data come from US10206909B2, “3-(1H-pyrrolo[2,3-B]pyridin-2-yl)-1H-pyrazolo[4,3-B]pyridines and therapeutic uses thereof” (Samumed, LLC, priority 2015, dated 2019).
